Measured values published in ChEMBL document CHEMBL1201862, “PubChem BioAssay data set” (2004).
Active and inactive are the calls of the source.

What was measured:
[1] = target: Mothers against decapentaplegic homolog 3 (Homo sapiens, UniProt P84022); experiment: Smad3 binding inhibitors, lysate ELISA, dose response, cell lysate, secondary confirmation, chemiluminescent ELISA, HEK293 lysate (AID 1058); type: functional
Cytochrome P450 2D6 = Cytochrome P450 2D6 (Homo sapiens, UniProt P10635); experiment: qHTS Assay for Inhibitors and Substrates of Cytochrome P450 2D6. [Related pubchem assays: 410 ]; type: ADME; settings: human; read-out: Potency
Cytochrome P450 2C19 = Cytochrome P450 2C19 (Homo sapiens, UniProt P33261); experiment: Cytochrome panel assay with activity outcomes. Panel member name: p450-cyp2c19 Compounds with AC50 equal or less than 10 uM are considered active; type: functional
Cytochrome P450 2C9 = Cytochrome P450 2C9 (Homo sapiens, UniProt P11712); settings: read-out: Potency
Vero [2] = experiment: Vero cell cytotoxicity, cytotoxicity control for flavivirus capping enzyme inhibitors (AID 588742); type: functional; settings: Chlorocebus sabaeus
[3] = target: T1, RNA-binding protein pos-1 (Caenorhabditis elegans, UniProt G5EF15); experiment: inhibitors of POS-1/mex-3 RNA binding, dose response, biochemical, fluorescence polarization (AID 1964);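 further: purified POS-1 fused to maltose binding protein made in E. coli; potency of compounds blocking POS-1 binding to fluorescent RNA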
T1 sequence (G5EF15 whole entry): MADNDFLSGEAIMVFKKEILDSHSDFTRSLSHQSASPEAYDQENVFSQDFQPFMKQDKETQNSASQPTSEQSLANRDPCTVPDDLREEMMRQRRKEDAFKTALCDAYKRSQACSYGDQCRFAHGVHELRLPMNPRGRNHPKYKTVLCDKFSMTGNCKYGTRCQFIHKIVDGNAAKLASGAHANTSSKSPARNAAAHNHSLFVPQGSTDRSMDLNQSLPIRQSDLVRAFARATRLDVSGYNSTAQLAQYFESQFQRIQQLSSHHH

[4] = target: T2, Zinc finger protein mex-5 (Caenorhabditis elegans, UniProt Q9XUB2); experiment: MEX-5/TCR-2 RNA interaction inhibitors, dose response, biochemical, C. elegans, fluorescence polarization (AID 1960)
T2 sequence (Q9XUB2 whole entry): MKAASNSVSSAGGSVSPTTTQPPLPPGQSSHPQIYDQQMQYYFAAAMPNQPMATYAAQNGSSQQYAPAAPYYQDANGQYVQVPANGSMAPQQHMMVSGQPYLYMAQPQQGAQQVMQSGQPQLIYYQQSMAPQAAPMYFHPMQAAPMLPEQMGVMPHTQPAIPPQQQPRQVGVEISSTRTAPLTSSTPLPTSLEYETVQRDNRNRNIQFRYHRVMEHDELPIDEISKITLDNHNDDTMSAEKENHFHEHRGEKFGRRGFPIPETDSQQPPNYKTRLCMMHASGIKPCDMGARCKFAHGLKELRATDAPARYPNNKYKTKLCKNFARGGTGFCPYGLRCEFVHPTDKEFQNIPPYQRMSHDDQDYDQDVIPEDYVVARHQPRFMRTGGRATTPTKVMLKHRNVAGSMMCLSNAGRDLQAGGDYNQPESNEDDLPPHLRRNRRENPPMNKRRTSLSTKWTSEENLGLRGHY

HEK293 [5] = experiment: PMA/Ionomycin induced NF-kB luciferase assay in 293- NF-kB-Luc stable cells. [Related pubchem assays: 1299, 1270, 1295, 1375, 1287, 1281, 1293, 1291, 1289, 1280, 465, 1364, 1282, 1372, 1365, 1370, 1367, 1366, 1269, 1373, 1292, 1290, 1302, 1371, 1283, 1271, 1294, 1374, 1368, 1369 ]; type: functional, cell-based; settings: Homo sapiens
[6] = target: Luciferin 4-monooxygenase (Photinus pyralis, UniProt P08659); experiment: In vitro luciferase assay using purified luciferase. [Related pubchem assays: 1299, 1270, 1295, 1375, 1287, 1281, 1293, 1291, 1289, 1280, 465, 1364, 1282, 1372, 1365, 1370, 1367, 1366, 1266, 1373, 1292, 1290, 1302, 1371, 1283, 1271, 1294, 1374, 1368, 1369 ]
HEK293 [7] = experiment: inhibitors of LMP1-driven NF-kB reporter, dose response, cell-based, HEK293, luciferase, cherry-pick (AID 588343); type: functional; settings: Homo sapiens
HEK293 [8] = experiment: Cytotoxicity assay in HEK293 cells. [Related pubchem assays (depositor defined):AID1266, AID1269, AID1270, AID1271, AID1280, AID1281, AID1282, AID1283, AID1287, AID1289, AID1290, AID1291, AID1292, AID1293, AID1294, AID1295, AID1299, AID1302, AID1364, AID1365, AID1366, AID1367, AID1369, AID1370, AID1371, AID1372, AID1373, AID1374, AID1375, AID1384 …; type: functional, cell-based; settings: Homo sapiens
[9] = target: Scavenger receptor class B member 1 (Mus musculus, UniProt Q61009); experiment: inhibitors of SR-BI mediated HDL lipid uptake, dose response, ldlA[mSR-BI] cells, fluorescence, cherry pick (AID 493194); type: functional, cell-based;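 further: cellular uptake of fluorescent DiI-labeled HDL measured as cell fluorescence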
Vero [10] = experiment: Vero E6 cell cytotoxicity, SAR follow-up, cytotoxicity control for West Nile virus antiviral project, synthesized analogs (AID 2244); type: functional; settings: Chlorocebus sabaeus

Sequence of Cytochrome P450 2D6 (P10635 whole entry): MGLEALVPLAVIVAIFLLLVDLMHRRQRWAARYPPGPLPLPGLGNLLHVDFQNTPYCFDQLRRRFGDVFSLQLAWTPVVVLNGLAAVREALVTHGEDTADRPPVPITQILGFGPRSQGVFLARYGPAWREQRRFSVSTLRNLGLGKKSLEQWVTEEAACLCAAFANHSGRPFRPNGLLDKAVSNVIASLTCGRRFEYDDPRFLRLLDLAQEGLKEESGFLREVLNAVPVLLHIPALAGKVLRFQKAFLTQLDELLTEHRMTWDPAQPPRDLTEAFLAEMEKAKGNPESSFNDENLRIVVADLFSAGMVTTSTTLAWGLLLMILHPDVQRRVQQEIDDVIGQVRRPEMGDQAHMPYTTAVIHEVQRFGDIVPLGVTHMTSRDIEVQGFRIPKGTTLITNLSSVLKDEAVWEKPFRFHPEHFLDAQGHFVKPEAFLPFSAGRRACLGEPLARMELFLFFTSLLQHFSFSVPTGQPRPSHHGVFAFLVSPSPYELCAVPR
Sequence of Scavenger receptor class B member 1 (Q61009 whole entry): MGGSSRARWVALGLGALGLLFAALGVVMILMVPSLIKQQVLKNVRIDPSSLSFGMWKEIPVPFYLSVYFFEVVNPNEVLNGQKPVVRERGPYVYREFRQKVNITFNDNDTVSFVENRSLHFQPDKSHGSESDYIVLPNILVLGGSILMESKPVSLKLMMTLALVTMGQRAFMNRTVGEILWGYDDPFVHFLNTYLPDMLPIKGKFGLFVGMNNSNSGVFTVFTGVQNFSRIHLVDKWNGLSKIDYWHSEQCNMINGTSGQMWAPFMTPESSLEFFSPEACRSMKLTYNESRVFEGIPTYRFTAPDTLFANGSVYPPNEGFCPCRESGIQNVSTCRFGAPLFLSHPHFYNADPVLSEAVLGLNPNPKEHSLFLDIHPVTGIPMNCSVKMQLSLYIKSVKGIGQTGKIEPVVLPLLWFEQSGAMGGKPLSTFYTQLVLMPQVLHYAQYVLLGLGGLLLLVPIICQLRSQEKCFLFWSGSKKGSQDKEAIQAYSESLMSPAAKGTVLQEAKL
Sequence of Cytochrome P450 2C19 (P33261 whole entry): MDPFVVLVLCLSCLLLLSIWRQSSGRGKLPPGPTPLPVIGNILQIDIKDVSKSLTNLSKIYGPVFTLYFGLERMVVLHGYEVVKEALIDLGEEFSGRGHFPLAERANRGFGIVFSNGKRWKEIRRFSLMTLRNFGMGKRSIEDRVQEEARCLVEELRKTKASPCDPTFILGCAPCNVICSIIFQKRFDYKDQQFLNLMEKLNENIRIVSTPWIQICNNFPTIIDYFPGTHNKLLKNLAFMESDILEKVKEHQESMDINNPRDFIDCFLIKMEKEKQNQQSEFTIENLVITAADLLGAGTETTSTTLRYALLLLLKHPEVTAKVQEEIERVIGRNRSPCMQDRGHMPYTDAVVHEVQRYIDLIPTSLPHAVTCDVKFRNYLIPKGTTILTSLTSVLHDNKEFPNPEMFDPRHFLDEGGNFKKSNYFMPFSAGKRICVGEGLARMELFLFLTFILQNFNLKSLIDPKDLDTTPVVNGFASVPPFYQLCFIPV
Sequence of Mothers against decapentaplegic homolog 3 (P84022 whole entry): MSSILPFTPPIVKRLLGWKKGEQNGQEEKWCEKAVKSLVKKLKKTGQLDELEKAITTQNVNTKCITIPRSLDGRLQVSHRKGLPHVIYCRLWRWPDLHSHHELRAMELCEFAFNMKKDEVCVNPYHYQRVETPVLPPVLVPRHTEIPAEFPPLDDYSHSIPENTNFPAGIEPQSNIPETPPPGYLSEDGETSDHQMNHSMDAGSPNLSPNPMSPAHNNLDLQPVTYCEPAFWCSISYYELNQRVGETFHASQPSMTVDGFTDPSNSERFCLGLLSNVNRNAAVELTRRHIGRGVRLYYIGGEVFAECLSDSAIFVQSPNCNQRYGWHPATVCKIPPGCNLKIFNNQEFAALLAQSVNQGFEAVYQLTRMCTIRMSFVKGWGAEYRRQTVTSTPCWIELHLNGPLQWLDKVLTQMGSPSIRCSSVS
Sequence of Cytochrome P450 2C9 (P11712 whole entry): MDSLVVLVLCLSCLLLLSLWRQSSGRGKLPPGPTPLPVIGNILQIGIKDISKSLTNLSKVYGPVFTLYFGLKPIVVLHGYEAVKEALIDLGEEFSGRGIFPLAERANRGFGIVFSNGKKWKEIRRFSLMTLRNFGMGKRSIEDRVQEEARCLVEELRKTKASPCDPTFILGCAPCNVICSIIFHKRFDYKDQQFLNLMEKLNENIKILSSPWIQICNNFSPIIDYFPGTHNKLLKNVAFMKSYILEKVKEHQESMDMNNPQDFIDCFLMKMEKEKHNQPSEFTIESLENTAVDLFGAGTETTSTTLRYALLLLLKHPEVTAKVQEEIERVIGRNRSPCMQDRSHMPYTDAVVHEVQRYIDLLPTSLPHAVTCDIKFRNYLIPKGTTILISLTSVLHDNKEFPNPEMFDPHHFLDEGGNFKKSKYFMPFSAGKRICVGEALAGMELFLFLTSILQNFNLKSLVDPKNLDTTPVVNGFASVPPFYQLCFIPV
Sequence of Luciferin 4-monooxygenase (P08659 whole entry): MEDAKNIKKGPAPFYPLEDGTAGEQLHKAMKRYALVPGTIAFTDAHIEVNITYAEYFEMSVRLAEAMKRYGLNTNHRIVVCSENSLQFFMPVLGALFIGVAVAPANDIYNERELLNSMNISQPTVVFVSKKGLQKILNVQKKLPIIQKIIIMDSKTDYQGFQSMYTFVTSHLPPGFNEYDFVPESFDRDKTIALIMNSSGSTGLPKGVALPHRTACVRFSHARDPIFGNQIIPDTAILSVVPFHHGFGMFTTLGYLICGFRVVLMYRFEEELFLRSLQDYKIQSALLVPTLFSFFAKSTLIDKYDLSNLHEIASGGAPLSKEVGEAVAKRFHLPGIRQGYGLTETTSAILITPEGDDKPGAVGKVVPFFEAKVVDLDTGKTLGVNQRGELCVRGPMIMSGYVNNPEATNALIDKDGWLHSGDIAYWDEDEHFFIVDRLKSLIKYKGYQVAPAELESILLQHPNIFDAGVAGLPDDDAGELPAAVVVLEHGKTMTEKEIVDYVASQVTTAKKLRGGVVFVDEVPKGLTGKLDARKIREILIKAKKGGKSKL

**Q.** How did the IC50 [1] turn out when COc1ccc(C(c2cc3c(cc2O)OCO3)N2CCN(C(c3ccc(OC)cc3)c3cc4c(cc3O)OCO4)CC2)cc1 (stereo not drawn) was run?
**A.** 36.1 µM (not active)

**Q.** What does the source list for C=CC1=C(C)c2cc3[nH]c(cc4nc(cc5[nH]c(cc1n2)c(C)c5CCC(=O)O)C(CCC(=O)O)=C4C)c(C)c3C=C [PROTOPORPHYRIN]?
**A.** AC50 (Cytochrome P450 2D6): 25.1 µM (inconclusive); AC50 (Cytochrome P450 2C19): inconclusive; AC50 (Cytochrome P450 2C9): 6.31 µM (inconclusive); CC50 (Vero [2]): 19.7 µM (active); EC50 [3]: 9.95 µM (active); EC50 [4]: 8.89 µM (active)

**Q.** What does the source list for COc1cc(OC)cc(-c2cc3nc(C)c(CCC(=O)O)c(C)n3n2)c1?
**A.** EC50 (HEK293 [5]): 4.19 µM (not active); EC50 [6]: > 8 µM (not active); AC50 (HEK293 [7]): 0.719 µM (active); EC50 (HEK293 [8]): > 8 µM (inactive)

**Q.** CN1CCc2ccc(NC(=O)c3ccc(C(F)(F)F)cc3)cc2C1 was tested. Which AC50 [9] did it give?
**A.** 90.7 µM (active)

**Q.** For O=C(Nc1nc(-c2ccc(Cl)cc2)cs1)c1ccc(I)cc1, which CC50 (Vero [10]) is on record?
**A.** > 40 µM (active)
